Here are results for one molecule from ChEMBL document CHEMBL1156367, “Makaluvamine P, a new cytotoxic pyrroloiminoquinone from Zyzzya cf. fuliginosa” (J Nat Prod, 2001).

One data set relates to KB. Put plainly: Cytotoxicity against human KB cells at 3.2 ug/mL after 48 hrs by XTT assay. Format: functional.
Data set [1] in a line: ABTS radical scavenging activity assessed as trolox equivalents by TEAC assay. In kind it is physicochemical.
Data set [2] deals with Xanthine dehydrogenase/oxidase (Homo sapiens, UniProt P47989). Description: Inhibition of xanthine oxidase by spectrophotometry.
Chain of Xanthine dehydrogenase/oxidase (P47989 whole entry): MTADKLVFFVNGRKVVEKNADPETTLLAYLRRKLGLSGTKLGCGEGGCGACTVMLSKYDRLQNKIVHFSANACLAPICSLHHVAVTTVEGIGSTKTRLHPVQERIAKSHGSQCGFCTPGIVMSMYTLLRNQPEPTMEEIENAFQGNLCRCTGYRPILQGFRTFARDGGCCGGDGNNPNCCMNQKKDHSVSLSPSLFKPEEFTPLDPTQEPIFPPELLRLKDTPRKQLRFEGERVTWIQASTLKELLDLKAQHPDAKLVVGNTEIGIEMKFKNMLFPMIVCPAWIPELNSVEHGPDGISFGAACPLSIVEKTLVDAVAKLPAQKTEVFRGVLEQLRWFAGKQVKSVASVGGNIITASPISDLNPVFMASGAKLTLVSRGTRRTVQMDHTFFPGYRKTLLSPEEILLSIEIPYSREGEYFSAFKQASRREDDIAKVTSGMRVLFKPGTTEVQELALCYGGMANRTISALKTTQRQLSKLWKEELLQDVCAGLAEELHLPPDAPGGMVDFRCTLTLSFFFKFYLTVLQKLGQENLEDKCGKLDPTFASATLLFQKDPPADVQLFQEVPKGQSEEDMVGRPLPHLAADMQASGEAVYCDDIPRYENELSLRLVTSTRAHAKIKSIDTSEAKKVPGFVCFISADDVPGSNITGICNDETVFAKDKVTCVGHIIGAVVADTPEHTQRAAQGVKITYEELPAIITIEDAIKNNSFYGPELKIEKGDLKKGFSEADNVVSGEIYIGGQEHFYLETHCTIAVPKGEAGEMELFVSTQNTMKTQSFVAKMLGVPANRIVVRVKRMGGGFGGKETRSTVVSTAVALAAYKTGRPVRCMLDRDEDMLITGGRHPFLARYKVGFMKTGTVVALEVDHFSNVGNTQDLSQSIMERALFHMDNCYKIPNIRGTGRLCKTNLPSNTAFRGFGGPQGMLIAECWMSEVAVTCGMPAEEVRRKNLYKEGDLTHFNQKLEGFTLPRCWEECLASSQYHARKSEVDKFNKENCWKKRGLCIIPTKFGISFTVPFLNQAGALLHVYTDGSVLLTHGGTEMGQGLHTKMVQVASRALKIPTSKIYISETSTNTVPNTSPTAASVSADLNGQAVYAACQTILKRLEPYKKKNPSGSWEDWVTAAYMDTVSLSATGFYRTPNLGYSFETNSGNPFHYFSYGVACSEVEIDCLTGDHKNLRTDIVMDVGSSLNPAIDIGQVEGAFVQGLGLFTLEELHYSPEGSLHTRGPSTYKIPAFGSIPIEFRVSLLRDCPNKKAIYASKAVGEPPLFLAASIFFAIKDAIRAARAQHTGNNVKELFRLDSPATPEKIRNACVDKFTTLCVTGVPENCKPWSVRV

For orientation: inhibition means the percentage by which the read-out fell short of the control. Low values mean a weak effect, high ones a strong effect. Usually IC50 stands for the concentration at which inhibition is half-maximal. For `Cn1cc2c3c1C(=O)C(NCCc1ccc(O)cc1)=CC3=[N+](C)CC2.[Cl-]` [MAKALUVAMINE P], in the data set with KB, testing at 3.2 µg/mL gave an inhibition of 64%. For the same molecule, the Activity in data set [1] came out at 0.341. Further, in data set [2], inhibition was half-maximal at 16.5 µM (IC50).
